Reference: PubChem BioAssay (NCI)
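Exposure lasted 48 hours, with cells grown in 96-well plates and compounds tested at five concentrations. Here, GI50 denotes the concentration required for 50% inhibition of growth. The concentration for full growth arrest is given as TGI.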 Where a SMILES comes first, the peptide text is derived from it. [ ]: non-standard residue; d: D form. The star is where a group is joined. ξ: configuration not given here. Propanoyl(3-(4-MeO-Ph)) = COc1ccc(CCC(=O)*)cc1; Thr(3ξ) = CC(O)[C@H](N)C(=O)O; dNMeL = CN[C@H](CC(C)C)C(=O)O; ξLac = CC(O)C(=O)O

What was measured:
Test in all cases: NCI tumour cell line growth inhibition, 48 h
OVCAR-3 ovarian = tested on: OVCAR-3 ovarian
OVCAR-5 ovarian = tested on: OVCAR-5 ovarian
A498 renal = tested on: A498 renal
HCT-116 colon = tested on: HCT-116 colon
CCRF-CEM leukemia = tested on: CCRF-CEM leukemia
A549 NSCLC = tested on: A549 NSCLC
SW-620 colon = tested on: SW-620 colon
SR leukemia = tested on: SR leukemia
HT29 colon = tested on: HT29 colon
HOP-62 NSCLC = tested on: HOP-62 NSCLC

| Structure (SMILES) | TGI (OVCAR-3 ovarian) | TGI (OVCAR-5 ovarian) | TGI (A498 renal) | TGI (HCT-116 colon) | TGI (CCRF-CEM leukemia) | TGI (A549 NSCLC) | TGI (SW-620 colon) | TGI (SR leukemia) | TGI (HT29 colon) | TGI (HOP-62 NSCLC) | GI50 (HT29 colon) | GI50 (OVCAR-3 ovarian) | GI50 (A498 renal) | GI50 (HCT-116 colon) | GI50 (CCRF-CEM leukemia) | GI50 (SR leukemia) |
| --- | --- | --- | --- | --- | --- | --- | --- | --- | --- | --- | --- | --- | --- | --- | --- | --- |
| Cc1ccc(C(=O)C2=CN=C3C(=O)N(c4ccccc4)N(C)C3(C)C2=N)cc1 (configuration not stated) | > 100 µM | > 100 µM | > 100 µM | > 100 µM | > 100 µM | > 100 µM | > 100 µM | > 100 µM | – | – | – | – | – | – | – | – |
| COC(=O)[C@@]12OC[C@]34C([C@@H](O)C1O)[C@@]1(C)CC(=O)C(O)=C(C)C1C[C@H]3OC(=O)[C@H](OC(=O)/C=C(/c1ccccc1)C(F)(F)F)[C@H]42 (some centres not stated) | – | > 25 µM | 8.45 µM | 12.3 µM | > 25 µM | 20.2 µM | – | 2.28 µM | 15 µM | > 25 µM | – | – | – | – | – | – |
| CCOC(=O)Cn1nnc2cc(Nc3nc4ccccc4nc3C(=O)OCC)ccc21 | > 100 µM | > 100 µM | > 100 µM | > 100 µM | > 100 µM | > 100 µM | > 100 µM | > 100 µM | > 100 µM | 79.6 µM | – | – | – | – | – | – |
| NC(=O)c1ncn2c(=O)n(CCl)nnc12 | > 100 µM | > 100 µM | > 100 µM | > 100 µM | > 100 µM | > 100 µM | > 100 µM | > 100 µM | > 100 µM | > 100 µM | – | – | – | – | – | – |
| COc1c(-c2cccs2)oc2c(CC(=O)O)cccc2c1=O | > 100 µM | > 100 µM | > 100 µM | > 100 µM | > 100 µM | > 100 µM | – | > 100 µM | – | > 100 µM | – | – | – | – | – | – |
| CCCCC1(N=[N+]=[N-])C(=O)C2C=CC=C3c4ccccc4N(C1=O)C32 (configuration not stated) | > 31.6 µM | > 31.6 µM | > 10 µM | > 31.6 µM | > 31.6 µM | > 31.6 µM | > 31.6 µM | > 10 µM | 25.8 µM | > 31.6 µM | – | – | – | – | – | – |
| C/C(=N\NC(=O)c1cccnc1)c1cccc(/C(C)=N/NC(=O)c2cccnc2)n1.CC(=O)[O-].CC(=O)[O-].[Zn+2] | > 100 µM | > 100 µM | > 100 µM | > 100 µM | 65.6 µM | > 57.4 µM | > 100 µM | 10.8 µM | > 100 µM | 65.6 µM | 5.64 µM | 0.843 µM | > 100 µM | 1.68 µM | 0.783 µM | 0.793 µM |
| COc1ccc(-c2nnc(-c3ccncc3)o2)cc1 | > 100 µM | > 100 µM | > 100 µM | > 100 µM | > 100 µM | > 100 µM | – | > 100 µM | > 100 µM | > 100 µM | – | – | – | – | – | – |
| NC(=O)CCC(NC(=O)c1cccc2c(=O)c3ccccc3[nH]c12)C(=O)O (configuration not stated) | > 100 µM | > 100 µM | > 100 µM | > 100 µM | – | > 100 µM | > 100 µM | > 100 µM | > 100 µM | > 100 µM | – | – | – | – | – | – |
| COc1cc2c(cc1OC(=O)c1cc3ccccc3[nH]1)N=C[C@@H]1CCCN1C2=O | 0.818 µM | 0.59 µM | 0.599 µM | 3.19 µM | 1.95 µM | 12 µM | 10.4 µM | 0.969 µM | 0.36 µM | 4.36 µM | – | – | – | – | – | – |
| CCOc1cc2c(cc1O)CC[C@@H]1[C@@H]2CC[C@]2(C)C(OS(=O)OC3CC[C@@H]4[C@H]5CCc6cc(O)c(OCC)cc6[C@@H]5CC[C@@]34C)CC[C@@H]12 (some centres not stated) | 0.813 µM | > 57.8 µM | 36.6 µM | > 39.6 µM | > 100 µM | 11.3 µM | 11 µM | > 44 µM | > 53.7 µM | > 27 µM | – | – | – | – | – | – |
| CCNc1cc2c3c(c1)CCCN3CCC2 | 19.1 µM | 45.1 µM | 65.3 µM | 19.2 µM | 6.43 µM | 35.9 µM | 55.2 µM | 27.4 µM | 21.6 µM | 28.4 µM | – | – | – | – | – | – |
| CC(O)c1cc2c(s1)C(=O)c1scc(C(C)O)c1C2=O (configuration not stated) | – | 3.37 µM | 4.36 µM | 2.64 µM | > 100 µM | 3.98 µM | > 100 µM | > 100 µM | 5.27 µM | – | – | – | – | – | – | – |
| COC(=O)c1c(O)ccc2c1c1c(n2Cc2ccccn2)C(=O)c2ccccc2C1=O | 64.8 µM | > 100 µM | > 100 µM | > 100 µM | > 100 µM | > 100 µM | – | 64.2 µM | 17.4 µM | 77.7 µM | – | – | – | – | – | – |
| COc1cccc2c1-c1c(OC)cccc1SS2 | 48.7 µM | 40.9 µM | 27.4 µM | 40.4 µM | – | 33.5 µM | 47.2 µM | 46.4 µM | 36.2 µM | > 100 µM | – | – | – | – | – | – |
| COC(=O)[C@@H](NC(=O)[C@@H](CC(C)C)N(C)C(=O)[C@@H]1CCCN1C(=O)C(C)O)C(C)OC(=O)CCc1ccc(OC)cc1 (some centres not stated) (H-[ξLac]P[dNMeL][Thr(3ξ)](Propanoyl(3-(4-MeO-Ph)))-OMe) | > 100 µM | > 100 µM | > 100 µM | > 100 µM | > 100 µM | > 100 µM | > 100 µM | > 100 µM | > 100 µM | > 100 µM | – | – | – | – | – | – |
| COc1ccc(CCNC(=O)CCCCCO)cc1OC | > 100 µM | > 100 µM | > 100 µM | > 100 µM | > 100 µM | > 100 µM | > 100 µM | > 100 µM | > 100 µM | > 100 µM | – | – | – | – | – | – |
| CO[C@H]1C[C@H](n2cc(C)c(=O)[nH]c2=O)O[C@@H]1CO | > 100 µM | > 100 µM | > 100 µM | > 100 µM | > 100 µM | > 100 µM | > 100 µM | > 100 µM | > 100 µM | > 100 µM | – | – | – | – | – | – |
| COc1ccc(S(=O)(=O)Nc2ccc(-c3csc(N4C(=O)/C(=C/c5ccccc5)N=C4c4ccccc4)n3)cc2)cc1Cl | > 100 µM | > 100 µM | 48.7 µM | > 100 µM | > 100 µM | > 100 µM | > 100 µM | > 100 µM | > 100 µM | > 100 µM | – | – | – | – | – | – |
| C=CC[C@@H]1C=C[C@@H](C(=O)OC)n2c(=O)n(-c3ccccc3)c(=O)n21 | > 100 µM | > 100 µM | > 100 µM | > 100 µM | > 100 µM | – | > 100 µM | > 100 µM | > 100 µM | > 100 µM | – | – | – | – | – | – |
| CN1CCN(/C(N)=C(\C#N)C(=O)Nc2ccccc2)CC1 | > 100 µM | > 100 µM | > 100 µM | > 100 µM | > 100 µM | > 100 µM | > 100 µM | > 100 µM | – | > 100 µM | – | – | – | – | – | – |
